Data published in ChEMBL document CHEMBL1201862, “PubChem BioAssay data set” (2004).
The source made the active and inactive calls.

How the values were obtained:
Format in all cases: functional
[1] = target: T1, Sentrin-specific protease 8 (Homo sapiens, UniProt Q96LD8);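 note: luminescence read-out of SENP8 inhibition, dose-response confirmation following an ultra-high-throughput screen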
T1 sequence (Q96LD8 whole entry): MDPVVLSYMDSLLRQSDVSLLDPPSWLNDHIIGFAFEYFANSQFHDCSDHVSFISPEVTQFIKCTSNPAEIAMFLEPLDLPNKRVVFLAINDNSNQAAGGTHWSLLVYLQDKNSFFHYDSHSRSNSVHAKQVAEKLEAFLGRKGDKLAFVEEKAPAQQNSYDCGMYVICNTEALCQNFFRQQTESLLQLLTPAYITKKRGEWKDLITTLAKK

[2] = target: T2, Sentrin-specific protease 7 (Homo sapiens, UniProt Q9BQF6);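 note: Luminescence-based dose-response confirmation of ultra-high-throughput screening hits, measuring inhibition of SENP7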
T2 sequence (Q9BQF6 whole entry): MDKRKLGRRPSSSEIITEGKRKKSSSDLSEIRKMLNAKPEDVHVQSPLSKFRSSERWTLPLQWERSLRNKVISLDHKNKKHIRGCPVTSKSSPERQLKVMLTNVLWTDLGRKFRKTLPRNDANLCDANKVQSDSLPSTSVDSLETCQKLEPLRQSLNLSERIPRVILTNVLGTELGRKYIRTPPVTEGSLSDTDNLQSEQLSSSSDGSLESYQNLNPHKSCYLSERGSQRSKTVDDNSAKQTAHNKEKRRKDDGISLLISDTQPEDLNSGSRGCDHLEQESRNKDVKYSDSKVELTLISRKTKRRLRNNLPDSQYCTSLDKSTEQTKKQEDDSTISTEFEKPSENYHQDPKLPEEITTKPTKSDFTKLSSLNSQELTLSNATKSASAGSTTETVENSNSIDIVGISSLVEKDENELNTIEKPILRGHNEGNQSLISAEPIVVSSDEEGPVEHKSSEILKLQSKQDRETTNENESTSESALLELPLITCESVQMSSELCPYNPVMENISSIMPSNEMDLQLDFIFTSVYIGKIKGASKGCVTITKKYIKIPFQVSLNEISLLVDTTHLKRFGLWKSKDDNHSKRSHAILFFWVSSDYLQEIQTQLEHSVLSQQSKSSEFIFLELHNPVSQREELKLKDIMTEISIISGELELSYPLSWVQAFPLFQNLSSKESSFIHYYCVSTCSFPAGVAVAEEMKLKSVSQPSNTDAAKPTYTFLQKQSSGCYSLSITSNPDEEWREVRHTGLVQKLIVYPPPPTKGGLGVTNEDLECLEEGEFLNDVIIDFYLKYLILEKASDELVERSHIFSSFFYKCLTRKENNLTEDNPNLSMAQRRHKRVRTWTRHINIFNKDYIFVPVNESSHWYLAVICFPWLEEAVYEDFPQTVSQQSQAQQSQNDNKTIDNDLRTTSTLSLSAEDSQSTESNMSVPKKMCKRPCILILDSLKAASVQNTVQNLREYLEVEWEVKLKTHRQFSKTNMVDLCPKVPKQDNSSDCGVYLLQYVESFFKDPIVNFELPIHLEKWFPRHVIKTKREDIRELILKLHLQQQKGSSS

[3] = target: T3, Replicative DNA helicase DnaB (Mycobacterium tuberculosis, UniProt P9WMR3); test: DnaB intein splicing inhibitors, dose response, biochemical, cell-free fluorescence (AID 449749)
T3 sequence (P9WMR3 whole entry): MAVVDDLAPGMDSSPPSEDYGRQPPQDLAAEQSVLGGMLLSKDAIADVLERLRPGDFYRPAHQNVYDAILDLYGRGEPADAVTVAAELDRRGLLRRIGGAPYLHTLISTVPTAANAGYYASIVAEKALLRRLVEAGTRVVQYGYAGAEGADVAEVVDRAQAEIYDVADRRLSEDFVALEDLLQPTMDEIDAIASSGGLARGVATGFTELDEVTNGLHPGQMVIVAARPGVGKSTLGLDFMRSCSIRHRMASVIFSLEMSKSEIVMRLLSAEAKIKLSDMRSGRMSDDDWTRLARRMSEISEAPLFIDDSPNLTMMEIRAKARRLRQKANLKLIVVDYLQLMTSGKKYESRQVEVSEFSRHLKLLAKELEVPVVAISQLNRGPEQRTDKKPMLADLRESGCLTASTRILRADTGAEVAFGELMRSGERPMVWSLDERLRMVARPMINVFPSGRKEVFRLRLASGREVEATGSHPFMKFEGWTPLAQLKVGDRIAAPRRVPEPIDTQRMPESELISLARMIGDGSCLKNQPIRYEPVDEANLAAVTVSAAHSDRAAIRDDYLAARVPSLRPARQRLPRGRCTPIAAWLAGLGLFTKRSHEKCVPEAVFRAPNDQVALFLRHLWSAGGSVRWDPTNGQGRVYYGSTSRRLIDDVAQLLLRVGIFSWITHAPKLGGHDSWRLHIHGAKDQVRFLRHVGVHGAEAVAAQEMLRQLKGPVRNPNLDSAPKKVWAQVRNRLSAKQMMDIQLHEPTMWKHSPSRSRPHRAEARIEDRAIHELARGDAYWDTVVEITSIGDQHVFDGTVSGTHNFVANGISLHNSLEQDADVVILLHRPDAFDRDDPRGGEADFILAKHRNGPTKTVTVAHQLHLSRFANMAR

Protein RecA = target: T4, Protein RecA (Mycobacterium tuberculosis, UniProt P9WHJ3); test: Fluorescence Cell-Free Homogeneous Dose Retest to Identify Inhibitors of RecA-Intein Splicing Activity. [Related pubchem assays (depositor defined):AID2097, AID2223, AID489010, AID492950]
T4 sequence (P9WHJ3 whole entry): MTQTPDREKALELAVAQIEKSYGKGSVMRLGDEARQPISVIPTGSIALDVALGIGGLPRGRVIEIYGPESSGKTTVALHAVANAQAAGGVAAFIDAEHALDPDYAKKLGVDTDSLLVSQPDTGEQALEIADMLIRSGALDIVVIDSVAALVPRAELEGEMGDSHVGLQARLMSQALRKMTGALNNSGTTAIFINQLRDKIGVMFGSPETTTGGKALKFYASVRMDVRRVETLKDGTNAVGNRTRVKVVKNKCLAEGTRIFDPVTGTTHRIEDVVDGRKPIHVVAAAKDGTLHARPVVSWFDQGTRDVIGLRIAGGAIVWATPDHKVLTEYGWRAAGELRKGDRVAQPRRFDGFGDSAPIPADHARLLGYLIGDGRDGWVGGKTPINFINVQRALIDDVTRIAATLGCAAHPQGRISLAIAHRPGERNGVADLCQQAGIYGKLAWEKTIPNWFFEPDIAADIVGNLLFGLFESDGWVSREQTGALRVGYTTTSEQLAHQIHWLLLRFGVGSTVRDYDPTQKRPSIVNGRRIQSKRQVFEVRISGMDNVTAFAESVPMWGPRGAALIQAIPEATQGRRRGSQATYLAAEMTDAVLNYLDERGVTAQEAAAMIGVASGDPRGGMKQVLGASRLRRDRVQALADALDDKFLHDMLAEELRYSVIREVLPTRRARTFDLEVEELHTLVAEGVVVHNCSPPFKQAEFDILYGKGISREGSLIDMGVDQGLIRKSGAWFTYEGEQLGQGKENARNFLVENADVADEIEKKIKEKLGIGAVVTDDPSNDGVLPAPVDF

Activin receptor type-1 = Activin receptor type-1 (Homo sapiens, UniProt Q04771); test: Navigating the Kinome. Panel member name: ACVR1
Chain of Activin receptor type-1 (Q04771 whole entry): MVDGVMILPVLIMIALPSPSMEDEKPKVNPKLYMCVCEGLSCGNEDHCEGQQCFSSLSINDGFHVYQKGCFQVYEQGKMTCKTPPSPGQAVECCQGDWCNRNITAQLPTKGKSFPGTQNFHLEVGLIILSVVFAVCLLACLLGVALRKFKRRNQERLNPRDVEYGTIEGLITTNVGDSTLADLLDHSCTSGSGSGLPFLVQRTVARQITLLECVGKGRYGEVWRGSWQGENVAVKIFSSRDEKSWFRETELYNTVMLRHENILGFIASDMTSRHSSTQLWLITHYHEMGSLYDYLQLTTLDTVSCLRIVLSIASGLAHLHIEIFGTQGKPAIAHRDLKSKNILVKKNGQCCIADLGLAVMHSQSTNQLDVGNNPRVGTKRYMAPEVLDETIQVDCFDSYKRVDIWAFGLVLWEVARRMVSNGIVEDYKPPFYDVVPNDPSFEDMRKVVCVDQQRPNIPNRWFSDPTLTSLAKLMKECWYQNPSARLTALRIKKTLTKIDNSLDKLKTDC

Row | Compound | IC50 [1] | IC50 [2] | AC50 [3] | EC50 (Protein RecA) | Ki (Activin receptor type-1)
1 | C=CCNC1=C(Cl)C(=O)c2ccccc2C1=O | 10.1 µM (active) | 23.9 µM (active) | 4.75 µM (active) | 10.4 µM (active) | 
2 | CN(C)c1ccc(-c2nnc(-c3cccs3)o2)cc1 | > 100 µM (inactive) | 12.9 µM (active) |  |  | 
3 | CCOC(=O)C(C(=O)OCC)c1cc(Br)c2noc3c2c1C(=O)c1ccccc1-3 |  |  | 27.6 µM (active) | 0.393 µM (active) | 
4 | COc1ccc(C(=O)Nc2n[nH]c3ccc(-c4cn(Cc5ccccc5)nn4)cc23)cc1OC |  |  |  |  | 1 µM (active)
